Laboratory results: the kinase profiling compilation of Christmann-Franck et al. (2016)

What was measured:
Assay in all cases: radiometric filter-binding kinase assay, Kinase HotSpot
Conditions in all cases: compound 0.5 µM; ATP 10 µM
[1] = molecular target: EPHA3 (human) (UniProt P29320)
[2] = molecular target: PRKCZ (human) (UniProt Q05513)
[3] = molecular target: NEK7 (human) (UniProt Q8TDX7)
[4] = molecular target: MYLK (human) (UniProt Q15746)
[5] = molecular target: CLK2 (human) (UniProt P49760)
[6] = molecular target: PRKCI (human) (UniProt P41743)
[7] = molecular target: NEK2 (human) (UniProt P51955)
[8] = molecular target: ACVRL1 (human) (UniProt P37023)
[9] = molecular target: ADRBK2 (human) (UniProt P35626)
[10] = molecular target: PRKCA (human) (UniProt P17252)
[11] = molecular target: ITK (human) (UniProt Q08881)
Chain of ITK (human) (Q08881 whole entry, looked up): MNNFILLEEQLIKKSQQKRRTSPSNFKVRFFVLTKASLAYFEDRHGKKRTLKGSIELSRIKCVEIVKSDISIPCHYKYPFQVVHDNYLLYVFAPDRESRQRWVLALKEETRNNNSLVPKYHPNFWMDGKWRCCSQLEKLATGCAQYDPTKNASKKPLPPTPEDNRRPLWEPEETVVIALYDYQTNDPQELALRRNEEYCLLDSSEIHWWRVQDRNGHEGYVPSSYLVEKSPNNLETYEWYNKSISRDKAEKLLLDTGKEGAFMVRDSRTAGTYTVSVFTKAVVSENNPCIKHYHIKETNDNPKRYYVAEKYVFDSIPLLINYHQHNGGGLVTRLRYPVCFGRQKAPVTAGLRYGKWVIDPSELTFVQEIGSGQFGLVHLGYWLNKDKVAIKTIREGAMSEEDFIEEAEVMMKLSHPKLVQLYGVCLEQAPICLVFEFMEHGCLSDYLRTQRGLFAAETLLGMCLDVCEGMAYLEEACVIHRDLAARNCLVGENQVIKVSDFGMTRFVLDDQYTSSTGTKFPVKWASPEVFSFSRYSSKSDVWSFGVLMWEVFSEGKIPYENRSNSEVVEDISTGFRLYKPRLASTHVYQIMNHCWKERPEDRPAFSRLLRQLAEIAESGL

[12] = molecular target: SGK2 (human) (UniProt Q9HBY8)
[13] = molecular target: STK25 (human) (UniProt O00506)
Chain of STK25 (human) (O00506 whole entry, looked up): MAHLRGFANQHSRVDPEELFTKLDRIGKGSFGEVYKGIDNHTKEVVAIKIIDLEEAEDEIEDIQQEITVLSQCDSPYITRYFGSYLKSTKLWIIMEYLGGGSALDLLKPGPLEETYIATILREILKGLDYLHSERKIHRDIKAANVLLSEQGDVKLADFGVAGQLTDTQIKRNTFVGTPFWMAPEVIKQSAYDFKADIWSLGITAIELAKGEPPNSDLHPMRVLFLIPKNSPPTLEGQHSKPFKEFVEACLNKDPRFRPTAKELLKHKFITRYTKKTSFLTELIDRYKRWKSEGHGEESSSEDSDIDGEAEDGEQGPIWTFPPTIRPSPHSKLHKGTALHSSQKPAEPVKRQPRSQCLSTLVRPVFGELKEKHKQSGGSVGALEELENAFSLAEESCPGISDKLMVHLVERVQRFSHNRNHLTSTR

[14] = molecular target: NLK (human) (UniProt Q9UBE8)
[15] = molecular target: DAPK1 (human) (UniProt P53355)
[16] = molecular target: PTK2B (human) (UniProt Q14289)
[17] = molecular target: MELK (human) (UniProt Q14680)
Chain of MELK (human) (Q14680 whole entry, looked up): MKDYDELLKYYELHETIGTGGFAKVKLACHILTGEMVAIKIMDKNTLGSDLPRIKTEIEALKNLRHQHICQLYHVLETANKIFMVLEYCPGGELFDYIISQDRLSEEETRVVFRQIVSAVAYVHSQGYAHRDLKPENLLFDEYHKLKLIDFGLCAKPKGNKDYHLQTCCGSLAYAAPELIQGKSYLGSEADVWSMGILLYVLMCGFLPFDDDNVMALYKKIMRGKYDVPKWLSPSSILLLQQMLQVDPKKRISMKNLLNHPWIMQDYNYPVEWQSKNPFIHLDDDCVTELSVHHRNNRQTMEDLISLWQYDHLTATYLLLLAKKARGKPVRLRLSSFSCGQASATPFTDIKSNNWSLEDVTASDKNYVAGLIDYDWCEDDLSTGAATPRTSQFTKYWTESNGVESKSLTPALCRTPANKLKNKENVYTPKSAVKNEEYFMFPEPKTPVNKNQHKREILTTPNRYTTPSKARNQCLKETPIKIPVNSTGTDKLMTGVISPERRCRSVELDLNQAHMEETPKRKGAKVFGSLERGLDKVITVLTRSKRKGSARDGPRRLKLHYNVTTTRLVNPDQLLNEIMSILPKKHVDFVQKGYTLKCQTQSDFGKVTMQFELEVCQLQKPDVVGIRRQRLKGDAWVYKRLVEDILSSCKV

[18] = molecular target: AURKC (human) (UniProt Q9UQB9)
[19] = test system: MAP2K6 (human), P52564 [S207E/T211E]
[20] = molecular target: HCK (human) (UniProt P08631)
[21] = molecular target: FGR (human) (UniProt P09769)
Chain of FGR (human) (P09769 whole entry, looked up): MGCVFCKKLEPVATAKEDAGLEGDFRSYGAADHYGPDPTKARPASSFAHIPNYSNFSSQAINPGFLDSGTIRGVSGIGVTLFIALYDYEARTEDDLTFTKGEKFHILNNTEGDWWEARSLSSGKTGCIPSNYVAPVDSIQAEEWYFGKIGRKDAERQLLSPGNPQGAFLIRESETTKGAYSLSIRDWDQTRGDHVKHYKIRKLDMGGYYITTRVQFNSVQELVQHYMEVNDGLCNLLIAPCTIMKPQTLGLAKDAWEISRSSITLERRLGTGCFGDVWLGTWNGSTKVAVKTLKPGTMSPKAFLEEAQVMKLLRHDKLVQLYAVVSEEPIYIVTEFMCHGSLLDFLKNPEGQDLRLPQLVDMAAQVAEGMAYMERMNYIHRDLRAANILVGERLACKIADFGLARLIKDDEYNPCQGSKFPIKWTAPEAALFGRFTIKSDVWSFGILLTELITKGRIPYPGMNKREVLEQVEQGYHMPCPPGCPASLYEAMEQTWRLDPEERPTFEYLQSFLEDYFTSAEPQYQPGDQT

[22] = molecular target: IRAK1 (human) (UniProt P51617)
[23] = test system: PRKCQ (human), Q04759 [P330L]
[24] = molecular target: IRAK4 (human) (UniProt Q9NWZ3)
[25] = molecular target: CDK1 CCNA2 (human) (UniProt P06493+P20248)
[26] = molecular target: PNCK (human) (UniProt Q6P2M8)
[27] = molecular target: CSNK1G1 (human) (UniProt Q9HCP0)
[28] = molecular target: CAMK2G (human) (UniProt Q13555)
Chain of CAMK2G (human) (Q13555 whole entry, looked up): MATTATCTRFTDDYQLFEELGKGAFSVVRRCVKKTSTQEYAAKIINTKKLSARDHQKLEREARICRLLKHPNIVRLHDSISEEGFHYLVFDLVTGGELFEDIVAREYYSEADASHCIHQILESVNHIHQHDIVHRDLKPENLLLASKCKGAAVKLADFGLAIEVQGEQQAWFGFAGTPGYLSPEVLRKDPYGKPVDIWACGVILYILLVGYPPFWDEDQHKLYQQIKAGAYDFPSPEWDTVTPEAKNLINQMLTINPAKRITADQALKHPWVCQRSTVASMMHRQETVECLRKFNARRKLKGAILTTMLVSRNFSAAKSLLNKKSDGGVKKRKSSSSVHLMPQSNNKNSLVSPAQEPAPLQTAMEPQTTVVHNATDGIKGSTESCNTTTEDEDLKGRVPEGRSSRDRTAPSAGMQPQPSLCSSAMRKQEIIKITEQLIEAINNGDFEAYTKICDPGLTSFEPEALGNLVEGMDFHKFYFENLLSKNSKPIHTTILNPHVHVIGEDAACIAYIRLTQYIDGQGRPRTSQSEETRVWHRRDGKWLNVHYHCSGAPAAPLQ

[29] = molecular target: MST1R (human) (UniProt Q04912)
[30] = molecular target: RPS6KA4 KD2 (human) (UniProt O75676)
[31] = molecular target: VRK1 (human) (UniProt Q99986)
[32] = test system: FLT4 (human), P35916 [Q890H]
[33] = molecular target: AURKB (human) (UniProt Q96GD4)
[34] = molecular target: DYRK3 (human) (UniProt O43781)
[35] = molecular target: CAMK1 (human) (UniProt Q14012)
[36] = molecular target: FLT1 (human) (UniProt P17948)
[37] = molecular target: CHEK1 (human) (UniProt O14757)
[38] = molecular target: KIT (human) (UniProt P10721)
[39] = molecular target: PAK3 (human) (UniProt O75914)
Chain of PAK3 (human) (O75914 whole entry, looked up): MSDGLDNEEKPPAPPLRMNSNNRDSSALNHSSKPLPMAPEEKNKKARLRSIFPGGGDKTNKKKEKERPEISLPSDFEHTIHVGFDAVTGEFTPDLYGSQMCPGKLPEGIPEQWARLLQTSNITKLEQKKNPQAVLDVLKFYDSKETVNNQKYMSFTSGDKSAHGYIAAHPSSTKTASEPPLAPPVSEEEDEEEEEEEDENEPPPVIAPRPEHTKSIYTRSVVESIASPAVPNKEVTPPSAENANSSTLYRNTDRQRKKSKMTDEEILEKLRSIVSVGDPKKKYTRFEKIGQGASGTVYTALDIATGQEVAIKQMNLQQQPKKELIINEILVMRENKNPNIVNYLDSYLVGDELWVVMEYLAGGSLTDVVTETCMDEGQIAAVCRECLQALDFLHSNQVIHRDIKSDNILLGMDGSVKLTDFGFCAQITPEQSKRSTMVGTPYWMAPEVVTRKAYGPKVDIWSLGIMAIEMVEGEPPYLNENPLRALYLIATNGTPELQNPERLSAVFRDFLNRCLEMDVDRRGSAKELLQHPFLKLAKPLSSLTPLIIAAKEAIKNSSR

[40] = molecular target: RPS6KB1 (human) (UniProt P23443)
[41] = molecular target: ROS1 (human) (UniProt P08922)
[42] = molecular target: TYRO3 (human) (UniProt Q06418)

Chain of EPHA3 (human) (P29320 whole entry, looked up): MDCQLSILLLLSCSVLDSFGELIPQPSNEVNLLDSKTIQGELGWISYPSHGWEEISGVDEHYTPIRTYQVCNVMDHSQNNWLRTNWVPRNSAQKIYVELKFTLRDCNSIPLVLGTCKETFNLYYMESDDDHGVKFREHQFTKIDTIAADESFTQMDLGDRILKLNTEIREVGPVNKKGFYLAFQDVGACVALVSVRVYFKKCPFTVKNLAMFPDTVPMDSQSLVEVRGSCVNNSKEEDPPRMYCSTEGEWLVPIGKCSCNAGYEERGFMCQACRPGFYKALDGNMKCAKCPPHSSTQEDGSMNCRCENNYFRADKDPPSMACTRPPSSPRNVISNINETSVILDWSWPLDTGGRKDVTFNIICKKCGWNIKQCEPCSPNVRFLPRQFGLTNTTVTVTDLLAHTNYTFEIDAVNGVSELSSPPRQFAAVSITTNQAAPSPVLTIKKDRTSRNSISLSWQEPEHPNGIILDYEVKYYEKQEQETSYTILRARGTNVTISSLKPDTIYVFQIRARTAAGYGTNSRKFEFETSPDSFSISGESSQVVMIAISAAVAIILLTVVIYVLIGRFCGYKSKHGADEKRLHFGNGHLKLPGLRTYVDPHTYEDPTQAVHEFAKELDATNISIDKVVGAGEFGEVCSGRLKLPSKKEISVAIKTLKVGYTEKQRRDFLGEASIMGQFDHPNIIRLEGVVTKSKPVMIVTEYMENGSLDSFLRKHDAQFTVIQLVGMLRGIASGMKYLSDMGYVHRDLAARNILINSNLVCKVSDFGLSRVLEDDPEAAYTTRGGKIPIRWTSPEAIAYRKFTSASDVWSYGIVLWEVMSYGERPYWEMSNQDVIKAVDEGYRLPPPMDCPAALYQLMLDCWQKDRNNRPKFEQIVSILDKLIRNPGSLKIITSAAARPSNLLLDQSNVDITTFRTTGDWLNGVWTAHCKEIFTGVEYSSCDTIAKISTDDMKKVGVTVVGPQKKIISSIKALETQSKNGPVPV
Chain of PRKCZ (human) (Q05513 whole entry, looked up): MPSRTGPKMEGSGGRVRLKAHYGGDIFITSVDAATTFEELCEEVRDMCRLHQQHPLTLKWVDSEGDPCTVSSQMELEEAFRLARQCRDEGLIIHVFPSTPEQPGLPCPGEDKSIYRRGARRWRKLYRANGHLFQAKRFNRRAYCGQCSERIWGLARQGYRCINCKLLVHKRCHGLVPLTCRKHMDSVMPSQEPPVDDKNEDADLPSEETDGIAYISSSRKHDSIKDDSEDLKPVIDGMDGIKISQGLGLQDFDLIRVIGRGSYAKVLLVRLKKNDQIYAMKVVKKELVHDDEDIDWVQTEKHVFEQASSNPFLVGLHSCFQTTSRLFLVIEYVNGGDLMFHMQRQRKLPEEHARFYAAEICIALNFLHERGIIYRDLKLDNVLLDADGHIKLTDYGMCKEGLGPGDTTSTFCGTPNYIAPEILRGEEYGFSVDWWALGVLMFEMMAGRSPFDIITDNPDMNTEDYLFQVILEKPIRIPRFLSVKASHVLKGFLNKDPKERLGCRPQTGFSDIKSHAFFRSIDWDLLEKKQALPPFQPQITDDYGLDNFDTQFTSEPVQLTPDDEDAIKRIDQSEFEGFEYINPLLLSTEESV

Compound | residual activity [2] [%] | residual activity [4] [%] | residual activity [5] [%] | residual activity [6] [%] | residual activity [8] [%] | residual activity [9] [%] | residual activity [11] [%] | residual activity [12] [%] | residual activity [13] [%] | residual activity [14] [%] | residual activity [15] [%] | residual activity [17] [%] | residual activity [18] [%] | residual activity [19] [%] | residual activity [20] [%] | residual activity [21] [%] | residual activity [22] [%] | residual activity [24] [%] | residual activity [26] [%] | residual activity [27] [%] | further results
NC(=O)c1cccc(-c2cc(Nc3ccc(OC(F)(F)F)cc3)ncn2)c1 | 100 | 91.9 | 93.1 | 99.6 | 99.2 | 80.5 | 95.3 | 116 | 94.5 | 93.4 | 81.1 | 94.5 | 101 | 101 | 92.9 | 96.8 | 101 | 159 | 109 | 97.8 | residual activity [1]: 97.5%; residual activity [3]: 96.3%; residual activity [7]: 95.6%; residual activity [10]: 77.4%; residual activity [16]: 94.6%; residual activity [23]: 104%; residual activity [25]: 103%; residual activity [28]: 102%; residual activity [29]: 111%; residual activity [30]: 85.8%; residual activity [31]: 97.9%; residual activity [32]: 98.5%; residual activity [33]: 96.9%; residual activity [34]: 99.9%; residual activity [35]: 97.5%; residual activity [36]: 98.4%; residual activity [37]: 94.2%; residual activity [38]: 100%; residual activity [39]: 100%; residual activity [40]: 109%
C[C@@H]1CCN(C(=O)CC#N)C[C@@H]1N(C)c1ncnc2[nH]ccc12 | 91.7 | 89.9 | 85.8 | 103 | 100 | 99.2 | 99.1 | 104 | 97.2 | 110 | 109 | 79.4 | 85.3 | 99.4 | 88.3 | 91.1 | 93.9 | 88.5 | 104 | 101 | residual activity [1]: 94.1%; residual activity [7]: 103%; residual activity [10]: 78.7%; residual activity [41]: 94.1%; residual activity [23]: 89%; residual activity [25]: 95.9%; residual activity [42]: 103%; residual activity [28]: 127%; residual activity [29]: 102%; residual activity [30]: 105%; residual activity [31]: 100%; residual activity [32]: 97.5%; residual activity [33]: 99.2%; residual activity [34]: 106%; residual activity [35]: 99.3%; residual activity [36]: 101%; residual activity [37]: 94.1%; residual activity [38]: 98.9%; residual activity [39]: 105%; residual activity [40]: 103%
COc1cc(Nc2c(C#N)cnc3cc(OCCCN4CCN(C)CC4)c(OC)cc23)c(Cl)cc1Cl | 89.7 | 72 | 69.3 | 99.4 | 67.6 | 99.2 | 103 | 103 | 10.1 | 101 | 106 | 25.8 | 82.1 | 93.4 | 11.9 | 11.5 | 91.3 | 63.2 | 109 | 95.7 | residual activity [1]: 31.7%; residual activity [3]: 94.6%; residual activity [7]: 8.56%; residual activity [10]: 49.5%; residual activity [41]: 95.4%; residual activity [16]: 32.6%; residual activity [23]: 71.5%; residual activity [25]: 96.9%; residual activity [28]: 131%; residual activity [30]: 101%; residual activity [31]: 100%; residual activity [32]: 44.1%; residual activity [33]: 83.1%; residual activity [34]: 91.8%; residual activity [35]: 68.9%; residual activity [36]: 44.5%; residual activity [37]: 38.9%; residual activity [38]: 93.6%; residual activity [40]: 87.7%
COc1ccc2c(c1)/C(=C/c1cnc[nH]1)C(O)=N2 | 107 | 80.9 | 80.6 | 96.9 | 98.7 | 101 | 94 | 71.4 | 86.2 | 69.7 | 105 | 36.5 | 67.8 | 90.1 | 96.1 | 80.4 | 101 | 92.2 | 86.3 | 106 | residual activity [1]: 93.3%; residual activity [10]: 91.3%; residual activity [41]: 91.1%; residual activity [23]: 109%; residual activity [25]: 43.7%; residual activity [42]: 99.2%; residual activity [28]: 94.6%; residual activity [30]: 76.9%; residual activity [31]: 91.2%; residual activity [32]: 66.4%; residual activity [33]: 40%; residual activity [34]: 98.6%; residual activity [35]: 103%; residual activity [36]: 73.9%; residual activity [37]: 76%; residual activity [38]: 84.1%; residual activity [39]: 99.2%; residual activity [40]: 98.2%
CO[C@@H]1[C@H](N(C)C(=O)c2ccccc2)C[C@H]2O[C@]1(C)n1c3ccccc3c3c4c(c5c6ccccc6n2c5c31)C(=O)NC4 | 98.6 | 27.3 | 36 | 96.4 | 94.3 | 97.5 | 70.6 | 99 | 55 | 96.9 | 84 | 4.87 | 12 | 91.4 | 14.9 | 17.4 | 86.3 | 71.5 | 92.9 | 103 | residual activity [3]: 101%; residual activity [7]: 101%; residual activity [41]: 6.53%; residual activity [16]: 58.2%; residual activity [42]: 98.8%; residual activity [28]: 43.9%; residual activity [29]: 101%; residual activity [30]: 16.8%; residual activity [31]: 90.8%; residual activity [32]: 10.9%; residual activity [33]: 2.96%; residual activity [34]: 98.5%; residual activity [36]: 37%; residual activity [37]: 53%; residual activity [40]: 19.4%
